The text below walks through data of the RepoRT retention time repository.

A short description of this data set: HILIC, Waters Atlantis Premier BEH Z-HILIC, 100 × 2.1 mm, 1.7 µm, 40 °C, 0.15 mL/min, estimated dead time 1.5 min; A: water + 20 mM ammonium carbonate + 5 µM medronic acid; B: 10% water + 90% acetonitrile + 2 mM ammonium carbonate + 0.5 µM medronic acid; gradient (min/%B) 0/95 18/60 18.1/20 21.5/20 22/95 23.5/95 25.5/95. As to conditions: stereoisomer not certain.
For `O=C(O)CCC(=O)C(=O)O` [2-Oxoglutaric acid], the LC retention time was 9.44 min. Under `O=C(O)CCC(O)C(=O)O` (stereo not given) [2-hydroxy glutaric acid] stands 10 min. Under `Nc1ncnc2c1ncn2C1OC(COP(=O)(O)OP(=O)(O)O)C(O)C1O` (stereo not given) [ADP] stands 12.2 min; under `Nc1ncnc2c1ncn2C1OC(COP(=O)(O)O)C(O)C1O` (stereo not given) [AMP], 9.98 min. Take `Nc1ncnc2c1ncn2C1OC(COP(=O)(O)OP(=O)(O)OP(=O)(O)O)C(O)C1O` (stereo not given) [ATP]: the LC retention time is 14.3 min. Under `CC(=O)SCCNC(=O)CCNC(=O)C(O)C(C)(C)COP(=O)(O)OP(=O)(O)OCC1OC(n2cnc3c(N)ncnc32)C(O)C1OP(=O)(O)O` (stereo not given) [Acetyl-CoA] stands 10.9 min; under `Nc1ncnc2c1ncn2C1OC(CO)C(O)C1O` (stereo not given) [Adenosine], 4.12 min; under `O=C(O)CCCCC1SCC2NC(=O)NC21` (stereo not given) [Biotin], 4.54 min.

For `C[N+](C)(C)CC(O)CC(=O)[O-]` (stereo not given) [Carnitine], the LC retention time was 10.4 min. In the case of `O=C(O)CC(O)(CC(=O)O)C(=O)O` [Citric acid], the LC retention time was 14.8 min. In the case of `CC(C)(COP(=O)(O)OP(=O)(O)OCC1OC(n2cnc3c(N)ncnc32)C(O)C1OP(=O)(O)O)C(O)C(=O)NCCC(=O)NCCS` (stereo not given) [CoenzymeA], the LC retention time was 12.9 min. The result for `Cc1cc2nc3c(=O)[nH]c(=O)nc-3n(CC(O)C(O)C(O)COP(=O)(O)OP(=O)(O)OCC3OC(n4cnc5c(N)ncnc54)C(O)C3O)c2cc1C` (stereo not given) [FAD] reads 7.66 min; that for `O=C(CO)C(O)C(O)C(O)COP(=O)(O)O` (stereo not given) [Fructose 6-phosphate], 12.2 min. Take `O=P(O)(O)OCC1OC(O)(COP(=O)(O)O)C(O)C1O` (stereo not given) [Fructose-1,6-bisphosphate]: the LC retention time was 16.9 min. The result for `Nc1nc2c(ncn2C2OC(COP(=O)(O)OP(=O)(O)OP(=O)(O)O)C(O)C2O)c(=O)[nH]1` (stereo not given) [GTP] reads 17.2 min; that for `O=P(O)(O)OCC1OC(O)C(O)C(O)C1O` (stereo not given) [Glucose-6-phosphate], 13.3 min. The result for `NC(CCC(=O)O)C(=O)O` (stereo not given) [Glutamic acid] reads 10.3 min; that for `NC(=O)CCC(N)C(=O)O` (stereo not given) [Glutamine], 11 min. The result for `O=P(O)(O)OCC(O)CO` (stereo not given) [Glycerol-3-phosphate] reads 10.9 min. Regarding `OCC1OC(O)C(O)C(O)C1O` (stereo not given) [Hexose], the LC retention time is 7.88 min. `O=C(O)CC(C(=O)O)C(O)C(=O)O` (stereo not given) [Isocitric acid]: the LC retention time is 14.6 min. As for `CCC(C)C(N)C(=O)O` (stereo not given) [Isoleucine], the LC retention time is 6.62 min.

Take `CC(O)C(=O)O` (stereo not given) [Lactic Acid]: the LC retention time is 3.43 min. Under `CC(C)CC(N)C(=O)O` (stereo not given) [Leucine] stands 6.18 min; under `NC(=O)C1=CN(C2OC(COP(=O)(O)OP(=O)(O)OCC3OC(n4cnc5c(N)ncnc54)C(O)C3O)C(O)C2O)C=CC1` (stereo not given) [NADH], 9.07 min.

As for `NC(=O)C1=CN(C2OC(COP(=O)(O)OP(=O)(O)OCC3OC(n4cnc5c(N)ncnc54)C(OP(=O)(O)O)C3O)C(O)C2O)C=CC1` (stereo not given) [NADPH], the LC retention time was 15 min. The result for `NC(=O)c1ccc[n+](C2OC(COP(=O)(O)OP(=O)(O)OCC3OC(n4cnc5c(N)ncnc54)C(OP(=O)(O)O)C3O)C(O)C2O)c1` (stereo not given) [NADP] reads 14.4 min; that for `NC(=O)c1ccc[n+](C2OC(COP(=O)(O)OP(=O)(O)OCC3OC(n4cnc5c(N)ncnc54)C(O)C3O)C(O)C2O)c1` (stereo not given) [NAD], 10.9 min. The result for `C=C(OP(=O)(O)O)C(=O)O` [PEP] reads 14.4 min; that for `O=C(O)C(CO)OP(=O)(O)O` (stereo not given) [Phosphoglyceric acid A], 13.4 min. The result for `O=C(O)CCC(=O)O` [Succinic Acid] reads 10.1 min; that for `O=C(CO)COP(=O)(O)O` [Triose phosphate], 10.8 min; that for `CC(=O)NC1C(OP(=O)(O)OP(=O)(O)OCC2OC(n3ccc(=O)[nH]c3=O)C(O)C2O)OC(CO)C(O)C1O` (stereo not given) [UDP-GlcNAc], 10.5 min. With `CCC(=O)OC(CC(=O)[O-])C[N+](C)(C)C` (stereo not given) [carnitine-C3], the LC retention time is 6.75 min. Under `O=C1CC(C(=O)O)NC(=O)N1` (stereo not given) [dihydroorotic acid] stands 4.65 min.
